Patent US10526322B2, “Inhibitors of kidney-type glutaminase, GLS-1” (CORNELL UNIVERSITY, priority 2014, dated 2020)

System: glutamine metabolism in Dbl-MEFs
Experiment: Metabolic tracing, mass isotopologue distribution with [U-13C]glutamine or [U-13C]glucose
Type: cell-based, mouse
Method: Methods for mass isotopologue distribution analyses using [U-^13C]glutamine or [U-^13C]glucose (Cambridge Isotope Laboratories) were adapted from Cheng et al., “Pyruvate Carboxylase Is Required for Glutamine-Independent Growth of Tumor Cells,” Proc. Natl. Acad. Sci. 108:8674-79 (2011), which is hereby incorporated by reference in its entirety. Briefly, induced (16 hours in complete media without Dox) or non-induced cells (complete media with 1 μg/mL Dox) were plated into 100 mm^2 dishes at a density such that the cells were approximately 60% confluent when adhered, at which point the cells were washed with PBS and grown to 80% confluence in DMEM supplemented with 1% Tet-approved FBS and 8 μM 968/27 for drug treated samples, or 0.8% DMSO for control samples, with or without 1 μg/mL Dox (i.e. overnight). When 80% confluent, cells were then washed with PBS and ^13C-labeling media containing the appropriate drug, DMSO, and Dox concentrations. Media was prepared from glucose- and glutamine-free DMEM powder (Sigma) and supplemented with 1% Tet-approved FBS, 2 mM L[U-^13C]glutamine and 15 mM unlabeled glucose or 15 mM D[U-^13C]glucose and 2 mM unlabeled glutamine (FIGS. 2F-G), together with 1 μg/mL Dox for non-induced samples. For samples containing [U-^13C]glutamine, cells were incubated for 1 hour before extracting metabolites, whereas samples containing [U-^13C]glucose were incubated for 8 hours. Metabolites were extracted by first washing cells twice with ice cold normal saline (0.9% w/v NaCl), followed by addition of 0.5 mL of a 1:1 methanol:water mixture (−20° C.). An internal standard (50 nmol of 2-oxobutyrate) was added and samples were subjected to 3 freeze-thaw cycles, after which macromolecules were separated by centrifugation. The supernatant was evaporated completely and remaining metabolites silylated in 100 μL of a trimethylsilyl donor (Tri-Sil, Thermo) for 30 minutes at 42° C. Metabolites were subjected to GC-MS analysis using an Agilent 6970 gas chromatograph networked to an Agilent 5973 mass selective detector. Metabolites were identified and isotope enrichment calculated as described by Cheng et al., “Pyruvate Carboxylase Is Required for Glutamine-Independent Growth of Tumor Cells,” Proc. Natl. Acad. Sci. 108:8674-79 (2011), which is hereby incorporated by reference in its entirety.

[1] = 8 μM, non-induced and induced cells

Structure (SMILES): CN(C)c1ccc(C2Nc3ccc4ccccc4c3C3=C2C(=O)CC(C)(C)C3)cc1Br (stereo not shown) [Compound 968]
- glucose labeling of citrate isotopologues (M+2) (8 μM overnight, 8 hour [U-13C]glucose): inhibit
- glutamate pool sizes [1]: modest decrease
- pool sizes of fumarate, malate, and citrate [1]: no effect
- glutamine-derived 13C isotopic enrichment within TCA cycle intermediates (Dbl-expressing cells, 8 μM overnight, 1 hour [U-13C]glutamine): significant reductions
